Data: patent US8815590B2, “Composition and method for differentiation of human embryonic stem cells” (Stem Cells for Safer Medicines Limited, priority 2009, dated 2014)

Key:
[1] = tested on: GSK-3; test: Phospho-β-catenin immunoblot and TOPFlash luciferase reporter assay in human ESCs; format: cell-based; details: 30 min (immunoblot) or 24 hr (TOPFlash)
Method: (A) ESCs [SHEF3] were cultured on MEFs or on Matrigel® in mTeSR1® media and treated with BIO or 1M for 30 min. Protein extracts were prepared and immunoblotting was performed using antibodies detecting the phosphorylated form of […]. The same immunoblot in each case was reprobed for total β-catenin to assess loading. (B) TOPFlash luciferase reporter assay of ESCs [SHEF1] treated for 24 hr with BIO or 1M at the indicated concentrations. Luciferase activity is expressed as a fold increase in activation compared with the normalised TOPFlash luciferase activity in untreated (Con) cells. Data represent the mean+/−SEM of 3 independent experiments.
Cell lysates (20 μg) were prepared, separated by SDS-PAGE and transferred to nitrocellulose as described previously (Welham et al., 1994). […] Images were captured and analysed using the ImageQuant RT ECL system (GE Healthcare). […]
The TOPFlash luciferase reporter plasmid (containing four consensus TCF binding sites upstream of the c-fos minimal promoter, driving expression of a firefly luciferase reporter) and its negative control plasmid FOPFlash (containing four mutant TCF binding sites) were provided by Dr C. […] Cell extracts were prepared and firefly and Renilla luciferase activities were determined using the dual-luciferase reporter assay system according to the manufacturer's instructions (Promega). […]

[2] = tested on: Human ESCs [SHEF3]; test: Colony morphology, RT-PCR and Western blot of OCT4/NANOG in treated human ESCs; format: cell-based
Method: Human ESCs [SHEF3] were treated with the indicated concentrations of BIO or compound 1M or left untreated as a control and cultured for 7 days. (A) Images show typical colonies formed following the indicated treatments. The scale bars represent 1 mm. (B) Histogram plots of ESCs analysed by flow cytometry following immunostaining with antibodies against the pluripotency markers Tra-1-60 or SSEA4. (C) RNA was extracted from the cells and RT-PCR analyses performed using primers specific to the pluripotency genes OCT4 and NANOG and to the house-keeping gene β-ACTIN. (D) Western blot analysis was performed on protein extracted from the cells and immunoblotted with antibodies specific to Oct4. Blots were stripped and reprobed with anti-Gapdh antibodies to assess equal loading. (E) Compound 1O also induces differentiation of human ESCs. SHEF3 cells were treated with the indicated concentration of 1O for 7 days. Images show typical colony morphology. (F) Histogram plots of ESCs analysed by flow cytometry following staining with Tra-1-60 and SSEA4 antibodies. Analysis of percent positive cells and mean fluorescent intensity are indicated on the plots. (G) RT PCR analysis for the expression of OCT4 and NANOG. Bands for each of the genes were from the same gel with intervening samples removed. (H) Western blot analysis of OCT4 protein expression. Proteins bands were from the same immunoblot with intervening samples removed.
SHEF1 and SHEF3 human ESCs were obtained from the UKSCB and cultured as outlined in their protocols. Briefly, ESCs were maintained on mitomycin C-inactivated mouse embryonic fibroblast (MEF) feeder layers in KnockOut Dulbecco's modified Eagle's medium (KO DMEM) (Invitrogen) supplemented with 20% (vol/vol) KO serum replacement (KOSR; Invitrogen), 1 mM non-essential amino acids (NEAA; Invitrogen), 1 mM glutamine (Invitrogen), 0.1 mM 2-mercaptoethanol (BioRad), penicillin/streptomycin, and 4 ng/ml recombinant human FGF2 (Peprotech). Cultures were passage using 1 mg/ml collagenase at a ratio of 1:8 to 1:12 every 7 days. Cultures were transferred to a feeder-free, chemically defined culture system on ESC-qualified Matrigel® (BD) coated plates in mTeSR1® (Stem Cell Technologies) media according to Stem Cell Technologies' protocol.
Total RNA was isolated and purified using TRIzol Reagent (Invitrogen), following the manufacturer's instructions. All RNA samples were treated with DNase I (Ambion) before cDNA synthesis to eliminate any contaminating genomic DNA. RNA (1 μg) was reverse transcribed into cDNA using Oligo(dT)15 (Promega) and SuperScript II (Invitrogen). Gene-specific PCR was carried out using primers and annealing temperatures outlined in Table 2.
Cell lysates (20 μg) were prepared, separated by SDS-PAGE and transferred to nitrocellulose as described previously (Welham et al., 1994). Immunoblotting was carried out using primary antibodies at the following dilutions: 1:5,000 anti-Oct4 (Santa Cruz Biotechnology; sc-9081); 1:2000 anti-GAPDH (sc-20357); 1:10,000 anti-phospho (Ser33/37/Thr41) β-catenin (Cell signalling Technology; CST 9561); 1:1000 anti-β-catenin (CST 9562). Anti-rabbit antibodies conjugated to horseradish peroxidise (DAKO) were used at 1:10,000 and blots were developed using ECL Advance (GE Healthcare) or ChemiGlow (Alpha Innotech) according to manufacturer's directions. Images were captured and analysed using the ImageQuant RT ECL system (GE Healthcare). Blots were stripped and reprobed as described previously (Welham et al., 1994).

SMILES: O=C1NC(=O)C2=C1c1cn(c3ccccc13)CCOCCOCCOCCOCCn1cc2c2ccccc21 [1M]
- GSK-3-mediated signaling (β-catenin phosphorylation, TOPFlash activity) [1]: inhibits GSK-3-mediated signaling
- OCT4 and NANOG gene expression (RT-PCR) ([2]; 7 days treatment): loss of the pluripotency markers OCT4 and NANOG
- Oct4 protein expression (Western blot) ([2]; 7 days treatment): loss of Oct4 protein expression
- Proliferation and differentiation of human ESCs (colony morphology) ([2]; 7 days, on MEFs in KO DMEM or on Matrigel in mTeSR1, 1M at 2 μM): dramatic increase in proliferation and differentiation
